{"source": "patent US10993917B2", "about": "“Nanocomplex” (AGENCY FOR SCIENCE, TECHNOLOGY AND RESEARCH, priority 2016, dated 2021)", "key": {"[1]": {"assay": "Blood chemistry analysis 38 days after first treatment", "assay_type": "in vivo, athymic NCR mice", "details": "38-days endpoint, 1 mg Pt kg^−1 i.v. days 0, 7, 14", "text": "The athymic NCR mice that received different treatments were sacrificed to collect blood, tumor, and organs 38 days after the first treatment. For blood chemistry analysis, blood samples were collected in heparinized tubes and then examined using the Vetscan VS2 blood chemistry analyzer (Abaxis Inc., of California of the United States of America). The levels of alkaline phosphatase (ALP), alanine aminotransferase (ALT) and other serum markers were examined. The excised tumors and organs were fixed with neutral buffered formalin, embedded in paraffin blocks, and then sectioned for hematoxylin and eosin (H&E) staining."}, "[2]": {"system": "SKOV-3 human ovarian cancer xenograft", "assay": "Antitumor efficacy study in a subcutaneous xenograft model", "assay_type": "in vivo, NCR mice", "details": "1 mg Pt kg^−1 i.v. on days 0, 7 and 14", "procedure": "Female NCR mice bearing a subcutaneous SKOV-3 human ovarian cancer xenograft (120-150 mm^3) were randomly allocated to different treatments (10 mice per group). […] An isotonic dextrose solution (5% w/v) was used as a control. The tumor volume (mm^3) was calculated from the following formula: volume=(length×width^2)/2. In addition, a change in the body weight in the course of treatment was monitored as a measure of systemic toxicity."}, "[3]": {"assay": "Drug release study by dialysis in PBS pH 7.4 (physiological stability)", "assay_type": "physicochemical", "details": "10 mM PBS pH 7.4, 37° C.", "procedure": "The dialysis tube was immersed in total 30 mL of 10 mM PBS (pH 7.4). The dialysis tube was then incubated at 37° C. on an orbital shaker at 50 rpm. […] The dialysis tube was then immersed in total 30 mL of 100 mM phosphate buffer (pH 6) at 37° C. At predetermined time points, the amount of cisplatin released in the medium was determined by ICP-MS as described above. […] This rapid drug leakage was caused by the dissociation of HA/cisplatin complexes via the replacement of the carboxylate ligand of Pt(II) with the chloride ion in PBS."}, "[4]": {"assay": "Biodistribution study in SKOV-3 tumor-bearing mice", "assay_type": "in vivo, athymic NCR nude mice", "details": "intravenous, 2 mg Pt kg^−1, 4 hours post-injection", "procedure": "All animal experiments were performed according to the protocols approved by the IACUC at the Biological Resource Centre, Singapore. Female athymic NCR nude mice (CrTac:Ncr-Foxn1^nu, 5-6 weeks old) were inoculated subcutaneously with 1×10^7 SKOV-3 cells suspended in 100 μL of PBS and 100 μL of Matrigel (BD Bioscience, of the United States of America) in the right flank. […] At predetermined time points, blood and organs were collected (4 mice per time point). The collected plasma and organs were decomposed in 65% (v/v) nitric acid at 60° C. for 2 hours, and the platinum concentration was measured by ICP-MS."}}, "data": [{"smiles": "N.N.[Cl][Pt][Cl]", "note": "[free cisplatin, cisplatin]", "values": [{"measurement": "ALP level in blood", "setting": "[1]", "result": "elevated"}, {"measurement": "ALT level in blood", "setting": "[1]", "result": "elevated"}, {"measurement": "tumor growth", "setting": "[2]", "result": "slightly delayed the tumor growth"}, {"measurement": "mean tumor volume", "setting": "[2]; day 38", "result": "299.7±117.7", "unit": "mm^3"}, {"measurement": "time to complete release from the dialysis tube", "setting": "[3]", "result": "≤ 6", "unit": "h"}, {"measurement": "cisplatin dose delivered into the tumor mass", "setting": "[4]", "result": "1.53±0.48", "unit": "% ID/g"}, {"measurement": "platinum accumulation in the liver", "setting": "[4]", "result": "1.31±0.25", "unit": "% ID/g"}]}]}
